According to patent publication US20210147481A1, “PEPTIDE-BASED INHIBITORS OF MARK FAMILY PROTEINS” (Ohio Universtiy, priority 2017, published 2021):
Peptide text beside a SMILES is read from it.

Key:
[1] = molecular target: MARK2 (Homo sapiens, UniProt Q7KZI7); assay: Validation of tR1 as a substrate for MARK2 (western blot, α-pTau Ser262); type: biochemical; settings: ATP, 60 minutes at 32° C.
Description: Once an otherwise competent kinase-substrate pair was developed for a working phosphorylation assay, tR1 was validated as a substrate for MARK2. The tR1 peptide (NVKSKIGSTENLK [SEQ ID NO: 1]) was synthesized using standard Fmoc-based solid-phase synthesis procedures and the final sequence was either acylated (tR1) or labeled with 5-carboxyfluorescein (tR1) on its N-terminus (FIG. 6A). See the experimental procedures, below, for details on the synthesis, labeling, purification and characterization of tR1 peptides. To evaluate whether tR1 is recognized as a substrate by MARK2, MARK2 was incubated with ATP in the presence of varying concentrations of tR1 peptide for 60 minutes at 32° C. in phosphorylation buffer. Following incubation, phosphorylated tR1 peptides were separated by SDS-PAGE and identified by Western blot using antibodies specific for hTau pSer262 (FIG. 6B). Western blot analysis confirmed tR1 as a substrate of MARK2 by the presence of a sharp band at the highest concentration (100 μM).
Phosphorylation assays were performed in 30 μL phosphorylation buffer (50 mM Tris-HCl, 5 mM MgCl2, 2 mM EGTA, 0.5 mM DTT, 0.5 mM benzamidine HCl, 0.5 mM PMSF, pH 8.0) and depending on the experimental conditions. […] Images were acquired by a Bio-Rad Gel Doc EZ imager and the band intensity was quantified using Image Lab Software c5.2.1 (Bio-Rad).

[2] = tested on: kinases that phosphorylate tau at Thr231; assay: Immunofluorescence of tau Thr231 phosphorylation in neurons; type: cell-based, rat
[3] = In vitro peptide stability in RPMI medium with 25% (v/v) human serum (RP-HPLC); type: in vitro ADME; settings: 37° C., up to 24 hours
Protocol: (§1) Stock peptide solutions for use in stability assays were prepared by dissolving tR1 to a final concentration of 5 mg/mL in dimethyl sulfoxide (DMSO). For stability tests, 2 μL of stock tR1 peptides were added to 198 μL pre-warmed RPMI medium supplemented with 25% (v/v) heat-inactivated human AB serum or neurobasal (NB) media at a final concentration of 50 μg/mL. Each reaction was subsequently incubated at 37° C. for the indicated times. Following incubation, 400 μL aqueous trichloroacetic acid (15%, w/v) was added to each reaction and the samples were immediately cooled on ice for 15 minutes. The samples were then centrifuged 3× at 14,000 rpm to remove precipitated proteins. […] The background signal was subtracted from each respective spectrum and the fraction of intact peptide was quantified from product peak integration normalized to undigested controls. […]
(§2) A major limitation to the therapeutic efficacy of peptides is their susceptibility to proteolytic degradation. Indeed, short peptides generally have a serum half-life measured in minutes. The in vitro stability of tR1 peptides in the presence of proteolytic enzymes was determined. […] Following the incubation, the reactions were quenched using haloacetic acids and the extent of degradation was quantified by analytical HPLC.

[4] = In vitro peptide stability in neurobasal (NB) media (RP-HPLC); type: in vitro ADME; settings: 37° C., up to 24 hours
Protocol: as §1, §2

[5] = tested on: trypsin; assay: Trypsin degradation control (RP-HPLC); type: in vitro ADME; settings: 37° C.
Protocol: as §1, §2

[6] = tested on: rat primary cortical neurons; settings: 72 hours
Protocol: Primary cells were isolated from embryonic Sprauge-Dawley rats and cultured as described.
High density rat primary cortical neurons (5-7 DIV) cultured in polyE coated 24-well plates were used for this assay. Culture media was switched to neurobasal without B27 supplement (NB-B27) before the addition of tR1 peptides. […] For the MTT assay, 50 μg/mL MTT working solution was diluted from a 5 mg/mL MTT stock (water solution made from MTT powder, Alfa Aesar L11939) in NB-B27. After aspirating out the culture media, cells were incubated with 0.2 mL 50 μg/mL MTT working solution for one hour at 37° C. Then, the MTT solution was aspirated and replaced with 0.5 mL DMSO. The whole DMSO solution was transferred to a cuvette and read in the spectrophotometer (Cary UV 50, Varian) at 550 nm with subtraction of the reading at 650 nm wavelength.

MARK2, sequence (Q7KZI7 whole entry): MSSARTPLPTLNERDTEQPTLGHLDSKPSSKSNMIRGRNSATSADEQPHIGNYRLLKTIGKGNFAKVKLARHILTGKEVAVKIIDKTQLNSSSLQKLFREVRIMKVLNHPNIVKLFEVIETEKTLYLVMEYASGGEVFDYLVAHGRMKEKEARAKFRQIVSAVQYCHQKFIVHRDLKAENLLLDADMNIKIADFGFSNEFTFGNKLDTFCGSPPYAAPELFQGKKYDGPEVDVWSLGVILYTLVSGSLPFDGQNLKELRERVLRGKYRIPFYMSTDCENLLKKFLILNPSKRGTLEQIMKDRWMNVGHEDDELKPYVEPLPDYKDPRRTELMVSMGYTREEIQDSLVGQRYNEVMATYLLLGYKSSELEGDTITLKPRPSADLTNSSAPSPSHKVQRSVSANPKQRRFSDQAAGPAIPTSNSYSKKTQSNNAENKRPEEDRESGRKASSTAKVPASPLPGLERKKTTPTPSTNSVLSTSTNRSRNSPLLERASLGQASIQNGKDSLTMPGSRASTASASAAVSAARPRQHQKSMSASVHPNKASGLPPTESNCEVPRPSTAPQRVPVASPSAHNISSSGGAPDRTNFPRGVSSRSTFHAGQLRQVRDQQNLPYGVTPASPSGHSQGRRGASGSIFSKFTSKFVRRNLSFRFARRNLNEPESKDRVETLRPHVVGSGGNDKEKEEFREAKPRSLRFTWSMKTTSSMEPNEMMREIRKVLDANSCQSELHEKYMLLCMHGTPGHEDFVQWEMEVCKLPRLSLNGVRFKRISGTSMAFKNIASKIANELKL

In the case of `CC[C@H](C)[C@H](NC(=O)[C@H](CCCCN)NC(=O)[C@H](CO)NC(=O)[C@H](CCCCN)NC(=O)[C@@H](NC(=O)[C@H](CC(N)=O)NC(C)=O)C(C)C)C(=O)NCC(=O)N[C@@H](CO)C(=O)N[C@H](C(=O)N[C@@H](CCC(=O)O)C(=O)N[C@@H](CC(N)=O)C(=O)N[C@@H](CC(C)C)C(=O)N[C@@H](CCCCN)C(N)=O)[C@@H](C)O` [tR1, NVKSKIGSTENLK] (Ac-NVKSKIGSTENLK-NH2), the “phosphorylation of tR1 by MARK2 (western blot)” value ([1]; 0, 1, or 10 μM peptide) is reported as “Phosphorylation was not seen”, the “phosphorylation of tR1 by MARK2 (western blot)” value ([1]; 100 μM peptide) is reported as “sharp band” and the “level of pTau Thr231 compared to untreated control cells” value ([2]; 30 μM tR1 and 100 μM CLQ, no PAO) is reported as “did not show any significant loss of pTau Thr231”. The “effect on PAO-mediated inhibition of tau Thr231 phosphorylation” value ([2]; tR1 with PAO, even in the presence of CLQ) was “did not influence the PAO-mediated inhibition of tau Thr231 phosphorylation”, the “fraction of intact tR1 (stable)” value [3] was > 90% and the remaining at 24 h, 50 μg/mL ([3]; RPMI medium with 25% (v/v) heat-inactivated human AB serum, read-out: fraction of intact tR1 (stable)) was > 90%. The “fraction of intact tR1 (stable)” value [4] was > 90%, the remaining at 24 h, 50 μg/mL ([4]; neurobasal (NB) media, read-out: fraction of intact tR1 (stable)) was > 90% and the degradation by trypsin ([5]; trypsin 10 ng/μL in digestion buffer, 15 minutes) was “complete degradation”. For the same compound, the “time to degradation in buffer containing trypsin” value ([5]; trypsin 10 ng/μL) was “less than 15 minutes”, the “concentrations at which tR1 is non-toxic” value ([6]; MTT) was “up to 300 μM” and the “loss in cell viability” value ([6]; highest concentrations of tR1 (0-300 μM)) was < 5%.
